Results as given in ChEMBL document CHEMBL4308841, “Synthesis, in vitro antiproliferative activity, and kinase inhibitory effects of pyrazole-containing diarylureas and diarylamides” (Eur J Med Chem, 2018).

Columns and labels:
Type in all cases: functional
[1] = system: CCRF-CEM; test: Growth inhibition of human CCRF-CEM cells assessed as cell growth at 10 uM incubated for 48 hrs by sulforhodamine B assay relative to control; details: read-out: Activity
[2] = system: HL-60(TB); test: Growth inhibition of human HL-60(TB) cells assessed as cell growth at 10 uM incubated for 48 hrs by sulforhodamine B assay relative to control; details: HL-60, 48 h, read-out: Activity
[3] = system: MOLT-4; test: Growth inhibition of human MOLT4 cells assessed as cell growth at 10 uM incubated for 48 hrs by sulforhodamine B assay relative to control; details: MOLT-4, 48 h, read-out: Activity
[4] = system: SR; test: Growth inhibition of human SR cells assessed as cell growth at 10 uM incubated for 48 hrs by sulforhodamine B assay relative to control; details: read-out: Activity
[5] = system: A549; test: Growth inhibition of human A549/ATCC cells assessed as cell growth at 10 uM incubated for 48 hrs by sulforhodamine B assay relative to control; details: A549, 48 h, read-out: Activity
[6] = system: NCI-H226; test: Growth inhibition of human NCI-H226 cells assessed as cell growth at 10 uM incubated for 48 hrs by sulforhodamine B assay relative to control; details: NCI-H226, 48 h, read-out: Activity
[7] = system: NCI-H460; test: Growth inhibition of human NCI-H460 cells assessed as cell growth at 10 uM incubated for 48 hrs by sulforhodamine B assay relative to control; details: NCI-H460, 48 h, read-out: Activity
[8] = system: COLO 205; test: Growth inhibition of human COLO205 cells assessed as cell growth at 10 uM incubated for 48 hrs by sulforhodamine B assay relative to control; details: COLO 205, 48 h, read-out: Activity
[9] = system: HCT-116; test: Growth inhibition of human HCT116 cells assessed as cell growth at 10 uM incubated for 48 hrs by sulforhodamine B assay relative to control; details: HCT-116, 48 h, read-out: Activity
[10] = system: HCT-15; test: Growth inhibition of human HCT15 cells assessed as cell growth at 10 uM incubated for 48 hrs by sulforhodamine B assay relative to control; details: HCT-15, 48 h, read-out: Activity
[11] = system: SF-268; test: Growth inhibition of human SF268 cells assessed as cell growth at 10 uM incubated for 48 hrs by sulforhodamine B assay relative to control; details: SF-268, 48 h, read-out: Activity
[12] = system: SF-295; test: Growth inhibition of human SF295 cells assessed as cell growth at 10 uM incubated for 48 hrs by sulforhodamine B assay relative to control; details: SF-295, 48 h, read-out: Activity
[13] = system: SNB-75; test: Growth inhibition of human SNB75 cells assessed as cell growth at 10 uM incubated for 48 hrs by sulforhodamine B assay relative to control; details: SNB-75, 48 h, read-out: Activity
[14] = system: U-251; test: Growth inhibition of human U251 cells assessed as cell growth at 10 uM incubated for 48 hrs by sulforhodamine B assay relative to control; details: U-251, 48 h, read-out: Activity
[15] = system: LOX IMVI; test: Growth inhibition of human LOXIMVI cells assessed as cell growth at 10 uM incubated for 48 hrs by sulforhodamine B assay relative to control; details: read-out: Activity
[16] = system: MDA-MB-435; test: Growth inhibition of human MDA-MB-435 cells assessed as cell growth at 10 uM incubated for 48 hrs by sulforhodamine B assay relative to control; details: MDA-MB-435, 48 h, read-out: Activity
[17] = system: SK-MEL-28; test: Growth inhibition of human SK-MEL-28 cells assessed as cell growth at 10 uM incubated for 48 hrs by sulforhodamine B assay relative to control; details: SK-MEL-28, 48 h, read-out: Activity
[18] = system: SK-MEL-5; test: Growth inhibition of human SK-MEL-5 cells assessed as cell growth at 10 uM incubated for 48 hrs by sulforhodamine B assay relative to control; details: SK-MEL-5, 48 h, read-out: Activity
[19] = system: UACC-257; test: Growth inhibition of human UACC257 cells assessed as cell growth at 10 uM incubated for 48 hrs by sulforhodamine B assay relative to control; details: UACC-257, 48 h, read-out: Activity
[20] = system: UACC-62; test: Growth inhibition of human UACC62 cells assessed as cell growth at 10 uM incubated for 48 hrs by sulforhodamine B assay relative to control; details: UACC-62, 48 h, read-out: Activity
[21] = system: OVCAR-4; test: Growth inhibition of human OVCAR4 cells assessed as cell growth at 10 uM incubated for 48 hrs by sulforhodamine B assay relative to control; details: OVCAR-4, 48 h, read-out: Activity
[22] = system: OVCAR-5; test: Growth inhibition of human OVCAR5 cells assessed as cell growth at 10 uM incubated for 48 hrs by sulforhodamine B assay relative to control; details: OVCAR-5, 48 h, read-out: Activity
[23] = system: SK-OV-3; test: Growth inhibition of human SKOV3 cells assessed as cell growth at 10 uM incubated for 48 hrs by sulforhodamine B assay relative to control; details: SK-OV-3, 48 h, read-out: Activity
[24] = system: 786-0; test: Growth inhibition of human 786-0 cells assessed as cell growth at 10 uM incubated for 48 hrs by sulforhodamine B assay relative to control; details: 786-0, 48 h, read-out: Activity
[25] = system: A498; test: Growth inhibition of human A498 cells assessed as cell growth at 10 uM incubated for 48 hrs by sulforhodamine B assay relative to control; details: A498, 48 h, read-out: Activity
[26] = system: ACHN; test: Growth inhibition of human ACHN cells assessed as cell growth at 10 uM incubated for 48 hrs by sulforhodamine B assay relative to control; details: read-out: Activity
[27] = system: CAKI-1; test: Growth inhibition of human Caki1 cells assessed as cell growth at 10 uM incubated for 48 hrs by sulforhodamine B assay relative to control; details: CAKI-1, 48 h, read-out: Activity
[28] = system: SN12C; test: Growth inhibition of human SN12C cells assessed as cell growth at 10 uM incubated for 48 hrs by sulforhodamine B assay relative to control; details: read-out: Activity
[29] = system: UO-31; test: Growth inhibition of human UO31 cells assessed as cell growth at 10 uM incubated for 48 hrs by sulforhodamine B assay relative to control; details: UO-31, 48 h, read-out: Activity
[30] = system: PC-3; test: Growth inhibition of human PC3 cells assessed as cell growth at 10 uM incubated for 48 hrs by sulforhodamine B assay relative to control; details: PC-3, 48 h, read-out: Activity
[31] = system: DU-145; test: Growth inhibition of human DU145 cells assessed as cell growth at 10 uM incubated for 48 hrs by sulforhodamine B assay relative to control; details: DU-145, 48 h, read-out: Activity
[32] = system: Hs-578T; test: Growth inhibition of human Hs578T cells assessed as cell growth at 10 uM incubated for 48 hrs by sulforhodamine B assay relative to control; details: read-out: Activity
[33] = system: T47D; test: Growth inhibition of human T47D cells assessed as cell growth at 10 uM incubated for 48 hrs by sulforhodamine B assay relative to control; details: read-out: Activity

Compound	growth at 10 µM [1]	growth at 10 µM [2]	growth at 10 µM [3]	growth at 10 µM [4]	growth at 10 µM [5]	growth at 10 µM [6]	growth at 10 µM [7]	growth at 10 µM [8]	growth at 10 µM [9]	growth at 10 µM [10]	growth at 10 µM [11]	growth at 10 µM [12]	growth at 10 µM [13]	growth at 10 µM [14]	growth at 10 µM [15]	growth at 10 µM [16]	growth at 10 µM [17]	growth at 10 µM [18]	growth at 10 µM [19]	growth at 10 µM [20]	further results
COc1cc(Cl)cc(-c2nn(-c3cccc(NC(=O)c4ccc(Cl)c(Cl)c4)c3)cc2-c2ccncc2)c1	59.2%	94.1%	54.9%	43.6%	59.7%	66.2%	65.2%	81.5%	44.1%	57.9%	82.4%	36.1%	50.6%	64.1%	72.8%	80.8%	87.8%	78.5%	84.2%	75.4%	growth at 10 µM [21]: 58.6%; growth at 10 µM [22]: 79.2%; growth at 10 µM [23]: 80.1%; growth at 10 µM [24]: 74.1%; growth at 10 µM [25]: -0.94%; growth at 10 µM [26]: 63.9%; growth at 10 µM [27]: 63.6%; growth at 10 µM [28]: 69.6%; growth at 10 µM [29]: 43.5%; growth at 10 µM [30]: 34%; growth at 10 µM [31]: 88.5%; growth at 10 µM [32]: 63.6%; growth at 10 µM [33]: 63.2%
O=C(Nc1cccc(-n2cc(-c3ccncc3)c(-c3cc(O)cc(Cl)c3)n2)c1)c1cc(C(F)(F)F)cc(C(F)(F)F)c1	26.9%	21.4%	19.5%	3.15%	27.3%	96%	19.9%	38.7%	24.6%	30.1%	69.3%	15%	52.7%	37.2%	10.5%	45.6%	63.6%	64.5%	71%	69.3%	growth at 10 µM [21]: 59.6%; growth at 10 µM [22]: 70.7%; growth at 10 µM [23]: 68.8%; growth at 10 µM [24]: 55.1%; growth at 10 µM [25]: 40.3%; growth at 10 µM [26]: 37.7%; growth at 10 µM [27]: 58.5%; growth at 10 µM [28]: 50.3%; growth at 10 µM [29]: 49.1%; growth at 10 µM [30]: 21.7%; growth at 10 µM [31]: 62.1%; growth at 10 µM [32]: 65.9%; growth at 10 µM [33]: 26.3%
COc1cc(Cl)cc(-c2nn(-c3cccc(NC(=O)Nc4cc(C(F)(F)F)cc(C(F)(F)F)c4)c3)cc2-c2ccncc2)c1	-22%	-20.1%	-24.6%	-37.9%	5.14%	-5.97%	0.24%	-64%	-4.6%	6.21%	14.2%	-43.2%	11.3%	-58%	-24%	-19.4%	6.55%	-79.4%	-25.6%	-21.2%	growth at 10 µM [21]: 11.8%; growth at 10 µM [22]: 21.6%; growth at 10 µM [23]: 6.84%; growth at 10 µM [24]: -26.9%; growth at 10 µM [25]: -21.6%; growth at 10 µM [26]: 10.3%; growth at 10 µM [27]: 8.99%; growth at 10 µM [28]: 9.32%; growth at 10 µM [29]: -0.18%; growth at 10 µM [30]: -6.27%; growth at 10 µM [31]: 13.1%; growth at 10 µM [32]: 5.82%; growth at 10 µM [33]: 6.56%
COc1cc(Cl)cc(-c2nn(-c3cccc(NC(=O)Nc4ccc(Cl)c(C(F)(F)F)c4)c3)cc2-c2ccncc2)c1	1.88%	-9.59%	-9.68%	-27.5%	5.2%	-2.82%	2.76%	-48.3%	3.39%	7.28%	22.9%	-7.48%	14.5%	-48.3%	4.81%	-16.8%	23.6%	-71.2%	-25.9%	6.62%	growth at 10 µM [21]: 16.6%; growth at 10 µM [22]: 19.2%; growth at 10 µM [23]: 11.9%; growth at 10 µM [24]: -4.76%; growth at 10 µM [25]: -9.18%; growth at 10 µM [26]: 8.78%; growth at 10 µM [27]: 9.38%; growth at 10 µM [28]: 13.8%; growth at 10 µM [29]: 11.1%; growth at 10 µM [30]: -13%; growth at 10 µM [31]: 15.2%; growth at 10 µM [32]: 14.6%; growth at 10 µM [33]: 8.1%
O=C(Nc1cccc(-n2cc(-c3ccncc3)c(-c3cc(O)cc(Cl)c3)n2)c1)Nc1ccc(Cl)c(C(F)(F)F)c1	9.31%	-26.9%	-18%	-30.6%	8.81%	41.2%	3.75%	63.4%	6.95%	5.79%	42.1%	14.3%	24.1%	-26.5%	2.08%	9.57%	-13.5%	23.8%	-40%	-1.44%	growth at 10 µM [21]: 31.6%; growth at 10 µM [22]: 59.3%; growth at 10 µM [23]: 63.1%; growth at 10 µM [24]: -29.8%; growth at 10 µM [25]: 21.5%; growth at 10 µM [26]: 21.3%; growth at 10 µM [27]: 29.1%; growth at 10 µM [28]: 34.6%; growth at 10 µM [29]: 18.5%; growth at 10 µM [30]: 5.34%; growth at 10 µM [31]: 18.7%; growth at 10 µM [32]: 21.7%; growth at 10 µM [33]: 25%
